The text below walks through data of PubChem BioAssay (NCI).

What all share (assay): NCI tumour cell line growth inhibition, 48 h
Test [1] deals with DLD-1 colon.
The test system of test [2] is DMS 273 small cell lung.
The test system of test [3] is HOP-18 NSCLC.
The subject of test [4] is LXFL 529 NSCLC.
For test [5], the system named is M19-MEL melanoma.
The subject of test [6] is SNB-78 CNS.
Test [7] concerns XF 498 CNS.
For test [8], the system named is MDA-N.
Test [9] has as its system RXF-631 renal.

Each structure is given as a SMILES string. Several values for one entry are separate records, joined by “and”; a condition that tells them apart may be missing. Equal entries are not always repeated.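 Protocol summary: plate cells (96-well), add compound at 5 concentrations, incubate 48 h, interpolate endpoints linearly. GI50 = concentration required for 50% inhibition of growth. TGI marks complete inhibition of growth.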 Where only a bound is given, the exact number is not on record here.

Consider `CC(=O)[O-].O=[N+]([O-])c1ccc([O-])c(C=NCCN=Cc2cc([N+](=O)[O-])ccc2[O-])c1.[Mn+3]`, for which the GI50 in test [1], in [2], in test [3], in [4], in test [5] and in test [6] was more than 100 µM in each case. The TGI in test [1], in test [2], in test [3], in test [4], in [5] and in test [6] was more than 100 µM throughout.

Take `C=C(C[N+](C)(C)C)N/N=C/c1oc(-c2ccc(OC)c(OC)c2)c(-c2ccc(OC)c(OC)c2)c1[N+](=O)[O-]`: the TGI is 46.9 µM in [1]; 60.4 µM in [3]; 52.4 µM in [4]; 29.3 µM in test [5]; more than 100 µM in [6]; 56.6 µM in [7].

As to `N=C(N)SCC(=O)O`, the TGI in test [8] is more than 100 µM.

`C=C[C@@]1(C)CC(=O)[C@]2(O)[C@@]3(C)[C@@H](O)CCC(C)(C)[C@@H]3[C@H](O)[C@@H](OC(C)=O)[C@@]2(C)O1` gave a TGI in test [8] of more than 100 µM.

Take `COc1cc2c3c(c1OC)/C(=N/OS(=O)(=O)c1ccc(C)cc1)CC3N(S(=O)(=O)c1ccc(C)cc1)CC2` (centres undefined): the TGI in [1], in [2], in test [3], in test [4], in test [5] and in test [9] was more than 100 µM each time. The TGI in test [6] and in [7] was more than 100 µM throughout.

For `Cc1cc(N(CCC#N)CCC#N)ccc1/C=C/C(=O)Nc1ccccc1Cl`, the TGI in [1], in [2], in [4], in test [5] and in test [7] was more than 100 µM each time.

As to `C=CCN(N=O)C(=O)ON1C(=O)CCC1=O`, the TGI in [1], in test [2], in test [3], in [4], in [5] and in [9] was more than 100 µM throughout. The compound also yielded a TGI in test [6] of more than 100 µM.

Regarding `COC(=O)C1=C(C(=O)OC)N(C(C)C)[C@H]2C(C(=O)OC)=C(C(=O)OC)N(C(C)C)[C@@H]12`, the TGI in test [1], in test [2], in test [3], in test [4], in [5] and in test [9] was more than 100 µM throughout. Also, the TGI in test [6] and in test [7] was more than 100 µM in each case.

Regarding `C1=CC=C2NCCSCCNC3=CC=CC=CC3=NCCSCCN=C2C=C1`, the TGI in [1], in [2], in test [3], in test [4], in test [5] and in [6] was more than 100 µM throughout.

Consider `COC(=O)C1=C(C(=O)OC)C(C(=O)OC)C(C(=O)OC)C(C(=O)OC)(C(=O)OC)C(C(=O)OC)=C1C(=O)OC` (centres undefined), for which the TGI in test [1] was determined as 6.98 µM; in test [3], 31 µM; in [4], 21.8 µM; in test [5] it was 25.6 µM; in test [8], 31.2 µM; in test [6], 44 µM. In addition, in test [7], the TGI is 25.3 µM.

`O=C1Cc2ccccc2CCc2ccccc21`: the TGI in test [1], in [2], in test [3], in test [4], in [5] and in test [6] was more than 100 µM each time.

In the case of `CC1(C)Oc2ccccc2N2O[C@@H]3C(=O)N(c4ccccc4)C(=O)[C@@H]3C21c1ccccc1` (some centres undefined), the TGI in test [1] is 65.7 µM; in [3] it was 49.1 µM; in [4] it was more than 100 µM; in [5], 72.5 µM; in test [6] it was 79.4 µM.

Consider `CCCCOP1(=O)C=CC(Cl)=C(C)C1` (centres undefined), for which the TGI in test [3] was more than 100 µM; in [4], 94.4 µM; in test [5], more than 100 µM; in [9] it was more than 100 µM; in test [7], 43.2 µM.

As to `O=c1ncccn1C1OC(CO)C(O)C1F` (centres undefined), the GI50 in [1] is more than 100 µM. The TGI in [1], in test [2], in [3], in test [4], in [5] and in test [9] was more than 100 µM in each case. The TGI in test [6] and in test [7] was more than 100 µM in each case.

For `CCOC(=O)c1cc(C(=O)O)c(=O)n2c1[nH]c1ccccc12`, the TGI in [1], in [2], in test [3], in test [4], in [5] and in [9] was more than 100 µM throughout. Further, the TGI in test [6] and in [7] was more than 100 µM throughout.

In the case of `CN1C=C(C(N)=O)C2CC(O)[C@@](NC(=O)CS(N)(=O)=O)(C(=O)O)C2C1` (some centres undefined), the TGI was 52.7 µM in [1]; 9.75 µM in test [2]; more than 100 µM in test [3]; 15.8 µM in [5]; 9.7 µM in test [9]; 8.68 µM in [6]. The compound further gave a TGI in test [7] of 3.21 µM.

On to `CCCC(=O)Nc1cn(COC)c(C(=O)N2C[C@H]3C[C@@]34C2=CC(=O)c2[nH]cc(C)c24)n1`, for which, in test [8], the GI50 is 7.62 µM; the TGI was 19.5 µM and 59.6 µM.

Regarding `O=C1[C@H]2ON(c3ccccc3)C(c3cccc([N+](=O)[O-])c3)[C@H]2C(=O)N1c1ccc(Cc2ccc(N3C(=O)[C@@H]4ON(c5ccccc5)C(c5cccc([N+](=O)[O-])c5)[C@@H]4C3=O)cc2)cc1` (some centres undefined), the TGI in test [1], in [2], in test [3], in test [4], in test [5] and in test [6] was more than 100 µM in each case.
